For three compounds, inward current response and current response results are on record in PMC4705464, “Sensillar expression and responses of olfactory receptors reveal different peripheral coding in two Helicoverpa species using the same pheromone components” (Scientific Reports, 2016).

Holding throughout (experiment): two-electrode voltage clamp, Xenopus oocytes
What all share (assay type): cell-based
(In two-electrode clamp one electrode senses voltage and the other passes current.)

One experiment addresses T1, HarmOR14b/HarmOrco (Helicoverpa armigera, UniProt R4JUU3).
T1 construct: gene OR14b; full ORF in pT7Ts, cRNA co-expressed with HarmOrco in Xenopus oocytes; alignment of OR14b orthologues over 440 residues; with Odorant receptor coreceptor
T1 sequence (R4JUU3 1-440): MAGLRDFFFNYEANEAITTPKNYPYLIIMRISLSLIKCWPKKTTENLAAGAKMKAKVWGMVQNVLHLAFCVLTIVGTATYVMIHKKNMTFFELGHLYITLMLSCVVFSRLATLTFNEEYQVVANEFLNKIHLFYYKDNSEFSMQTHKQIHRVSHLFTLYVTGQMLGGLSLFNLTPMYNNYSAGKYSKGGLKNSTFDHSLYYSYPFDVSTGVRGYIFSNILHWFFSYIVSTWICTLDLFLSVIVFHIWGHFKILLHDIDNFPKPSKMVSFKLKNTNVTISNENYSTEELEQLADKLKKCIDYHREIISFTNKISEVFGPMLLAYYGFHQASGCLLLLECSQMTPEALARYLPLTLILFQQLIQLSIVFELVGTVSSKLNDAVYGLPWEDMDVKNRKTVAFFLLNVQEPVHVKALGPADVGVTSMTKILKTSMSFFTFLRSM
The note with it: agonist; 10^-4 mol/L; with HarmOrco.

Another experiment addresses T2, HassOR16/Orco (Helicoverpa assulta, UniProt C6K7C1).
T2 construct: full ORF in pT7Ts, cRNA co-expressed with Orco in Xenopus oocytes; with Odorant receptor coreceptor
T2 sequence (C6K7C1 1-422): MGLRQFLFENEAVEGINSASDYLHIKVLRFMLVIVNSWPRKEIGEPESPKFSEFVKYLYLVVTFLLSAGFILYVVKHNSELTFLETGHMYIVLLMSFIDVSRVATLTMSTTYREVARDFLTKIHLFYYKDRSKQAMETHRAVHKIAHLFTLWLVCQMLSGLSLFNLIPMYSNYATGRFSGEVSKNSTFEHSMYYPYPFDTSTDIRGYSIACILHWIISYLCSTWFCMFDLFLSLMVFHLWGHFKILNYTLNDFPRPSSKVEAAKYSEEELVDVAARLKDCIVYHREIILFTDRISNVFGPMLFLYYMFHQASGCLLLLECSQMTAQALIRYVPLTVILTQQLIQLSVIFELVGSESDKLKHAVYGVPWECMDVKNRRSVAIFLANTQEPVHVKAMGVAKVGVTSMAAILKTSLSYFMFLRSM
T2 sequence (A7UGE1 1-473 partner): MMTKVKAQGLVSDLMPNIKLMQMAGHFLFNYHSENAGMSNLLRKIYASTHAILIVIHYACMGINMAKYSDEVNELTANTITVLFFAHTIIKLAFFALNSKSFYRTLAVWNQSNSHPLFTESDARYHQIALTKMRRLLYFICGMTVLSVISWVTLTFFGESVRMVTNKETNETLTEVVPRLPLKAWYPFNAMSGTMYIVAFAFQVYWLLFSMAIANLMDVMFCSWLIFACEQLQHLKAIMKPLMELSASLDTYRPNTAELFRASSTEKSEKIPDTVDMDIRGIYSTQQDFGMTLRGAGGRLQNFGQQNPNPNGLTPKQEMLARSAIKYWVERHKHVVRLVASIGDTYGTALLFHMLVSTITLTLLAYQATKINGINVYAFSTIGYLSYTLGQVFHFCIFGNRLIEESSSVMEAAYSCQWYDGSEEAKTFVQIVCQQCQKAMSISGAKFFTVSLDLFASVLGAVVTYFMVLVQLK
The note with it: agonist; with Orco.

The next experiment has as its target T3, HassOR6/Orco (Helicoverpa assulta, UniProt R4JLZ7).
T3 construct: gene OR6; full ORF in pT7Ts, cRNA co-expressed with Orco in Xenopus oocytes; with Odorant receptor coreceptor
T3 sequence (R4JLZ7 1-425): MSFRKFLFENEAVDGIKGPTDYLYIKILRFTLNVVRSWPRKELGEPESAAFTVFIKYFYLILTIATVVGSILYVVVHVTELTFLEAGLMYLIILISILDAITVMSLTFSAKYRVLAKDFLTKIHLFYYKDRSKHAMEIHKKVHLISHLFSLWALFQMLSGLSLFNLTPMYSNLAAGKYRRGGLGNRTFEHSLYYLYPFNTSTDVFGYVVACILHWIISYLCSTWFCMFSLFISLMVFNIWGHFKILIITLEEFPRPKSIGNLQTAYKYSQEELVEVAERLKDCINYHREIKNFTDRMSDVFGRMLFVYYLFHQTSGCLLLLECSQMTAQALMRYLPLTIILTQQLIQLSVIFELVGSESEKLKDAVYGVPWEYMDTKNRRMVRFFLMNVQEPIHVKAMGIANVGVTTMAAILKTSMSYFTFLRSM
T3 sequence (A7UGE1 1-473 partner): T2 sequence (A7UGE1 1-473 partner)
The note with it: agonist, main ligand; with Orco.

Another experiment deals with T4, HassOR13/Orco (Helicoverpa assulta, UniProt A0A0B4ZYC6).
T4 construct: gene OR13; full ORF in pT7Ts, cRNA co-expressed with Orco in Xenopus oocytes; with Odorant receptor coreceptor
T4 sequence (A0A0B4ZYC6 1-425): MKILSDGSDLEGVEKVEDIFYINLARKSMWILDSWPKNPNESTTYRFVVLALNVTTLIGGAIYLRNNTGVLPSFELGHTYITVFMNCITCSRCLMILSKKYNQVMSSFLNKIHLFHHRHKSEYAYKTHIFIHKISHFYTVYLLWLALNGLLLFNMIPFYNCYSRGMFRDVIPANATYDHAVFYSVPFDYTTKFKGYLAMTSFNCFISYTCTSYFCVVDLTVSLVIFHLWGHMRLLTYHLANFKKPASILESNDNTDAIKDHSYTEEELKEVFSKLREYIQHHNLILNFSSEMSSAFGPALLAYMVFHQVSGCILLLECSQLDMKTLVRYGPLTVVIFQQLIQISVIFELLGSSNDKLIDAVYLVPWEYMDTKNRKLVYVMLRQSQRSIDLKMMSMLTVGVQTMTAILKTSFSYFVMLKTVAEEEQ
T4 sequence (A7UGE1 1-473 partner): T2 sequence (A7UGE1 1-473 partner)
Conditions: agonist; with Orco.

With `CCCC/C=C\CCCCCCCC=O` [Z9-14:Ald], the inward current response entry at HarmOR14b/HarmOrco is listed as “this receptor, when expressed in Xenopus oocytes, responds specifically to Z9-14:Ald”. Moreover, the current response entry at HassOR16/Orco was “HassOR13/Orco and HassOR16/Orco were narrowly tuned to Z11-16:Ald and Z9-14:Ald respectively”. In the case of `CCCCCC/C=C\CCCCCCCCO` [Z9-16:OH], at HassOR6/Orco, the current response entry is “HassOR6/Orco responded mainly to Z9-16:OH”. Turning to `CCCC/C=C\CCCCCCCCCC=O` [Z11-16:Ald, (Z)-11-hexadecenal], at HassOR13/Orco, the current response result was “HassOR13/Orco and HassOR16/Orco were narrowly tuned to Z11-16:Ald and Z9-14:Ald respectively”.
